In experiment [1] the target is T1, human 5-HT1A receptor (Homo sapiens, UniProt P08908).
T1 construct: expressed in transfected cells; host or cells: CHO-K1
T1 sequence (P08908 1-422): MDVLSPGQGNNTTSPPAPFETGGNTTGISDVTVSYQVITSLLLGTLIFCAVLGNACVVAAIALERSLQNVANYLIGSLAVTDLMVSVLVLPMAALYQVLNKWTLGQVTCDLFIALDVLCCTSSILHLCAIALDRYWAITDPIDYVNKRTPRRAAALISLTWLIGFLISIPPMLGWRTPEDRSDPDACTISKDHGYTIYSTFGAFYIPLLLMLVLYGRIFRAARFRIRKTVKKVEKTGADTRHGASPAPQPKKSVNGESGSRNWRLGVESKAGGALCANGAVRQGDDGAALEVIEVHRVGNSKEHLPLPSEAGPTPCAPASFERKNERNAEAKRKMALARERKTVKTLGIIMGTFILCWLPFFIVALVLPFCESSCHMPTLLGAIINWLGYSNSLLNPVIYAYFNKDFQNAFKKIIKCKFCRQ
The experiment in a line: 5-HT1A Radioligand Binding Assay. As to conditions: 1 μM test compound; competition with 0.9 nM [3H]-8-OH-DPAT; membranes of 5-HT1A expressing CHO-K1 cells. The procedure:
Cells expressing the human 5-HT1A receptor were grown to mid-log phase in complete culture medium and then scraped from the culture vessels in ice-cold Ca^2+- and Mg^2+-free Phosphate-buffered saline. The cells were then centrifuged for 10 minutes at 5,000×g and 4° C. and the pellets resuspended in buffer A (15 mM Tris-HCl pH 7.5; 2 mM MgCl2; 0.3 mM EDTA; 1 mM EGTA) and homogenized in a glass-glass homogenizer. The crude membrane fraction was collected by two consecutive centrifugation steps at 35,000×g and 4° C. for 30 minutes separated by a wash step with buffer A. The final membrane pellet was suspended in buffer B (75 mM Tris-HCl pH 7.5; 12.5 mM MgCl2; 0.3 mM EDTA; 1 mM EGTA; 250 mM sucrose) and flash-frozen in liquid nitrogen. Protein content was determined by the BCA method (Interchim, UP40840A).
Radioligand competition binding was performed in duplicate in the wells of a 96 well plate (Master Block, Greiner, 786201) containing binding buffer (50 mM Tris, 5 mM CaCl2, 0.1% ascorbic acid, 10 μg/ml saponin, pH7.4), membrane extracts prepared from the 5-HT1A expressing CHO-K1 cell line (7 μg protein/well), reference tracer (0.9 nM [^3H]-8-OH-DPAT) and test compound in a final volume of 0.1 ml. Nonspecific binding was determined by co-incubation with 200-fold excess of reference competitor (5-HT). The samples were incubated for 1 hour at 25° C., and then filtered over GF/B Unifilter plates (Perkin Elmer 6005177) presoaked in 0.5% PEI, using a Filtermate Harvester (Perkin Elmer, C96162). Filters were washed six times with 0.5 ml ice-cold buffer (50 mM Tris pH 7.4) and 50 μl of Microscint 20 (Packard) were added to each well. The plates were incubated 15 minutes on an orbital shaker and then counted with a TopCount NXT (Packard, C384V01) for 1 minute/well.
Compounds were tested at 1 and 10 μM concentrations, in duplicate: […]

The target in experiment [2] is T2, TAAR1 receptor (UniProt Q96RJ0).
T2 sequence (Q96RJ0 1-339): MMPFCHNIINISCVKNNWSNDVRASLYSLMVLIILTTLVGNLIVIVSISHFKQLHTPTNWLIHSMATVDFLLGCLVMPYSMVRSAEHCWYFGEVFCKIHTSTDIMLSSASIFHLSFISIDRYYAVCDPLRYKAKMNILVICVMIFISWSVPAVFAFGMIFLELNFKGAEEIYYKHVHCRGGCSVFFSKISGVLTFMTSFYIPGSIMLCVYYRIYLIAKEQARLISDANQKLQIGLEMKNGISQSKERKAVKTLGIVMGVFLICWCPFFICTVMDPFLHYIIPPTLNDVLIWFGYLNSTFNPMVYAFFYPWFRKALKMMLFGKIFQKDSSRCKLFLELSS
The experiment in a line: TAAR1 Agonist cAMP Assay. In kind it is cell-based, human or mouse. As to conditions: CHO-K1 cells expressing TAAR1; cAMP HTRF; 30 minutes at room temperature. The procedure:
CHO-K1 cells expressing the human TAAR1 receptor (Accession number NP_612200.1) or mouse TAAR1 receptor (Accession number NP_444435.1) were grown in media (Advanced DMEM supplemented with 1% dialyzed fetal bovine serum) without antibiotics. The cells were detached by gentle flushing with phosphate buffered saline containing 5 mM EDTA, recovered by centrifugation and resuspended in assay buffer (Krebs-Ringers Henseleit buffer: 5 mM KCl, 1.25 mM MgSO4, 124 mM NaCl, 25 mM HEPES, 13.3 mM Glucose, 1.25 mM KH2PO4, 1.45 mM CaCl2, 0.5 g/L BSA, supplemented with 1 mM isobutylmethylxanthine). Testing was performed in 384-well plates. 5 μl of cells (3000 cells) were mixed with 5 μl of the test compound diluted in assay buffer and then incubated for 30 minutes at room temperature. cAMP levels were determined using the Cisbio cAMP Gs dynamic HTRF kit (Cisbio, Bedford, MA). The results of the testing are shown in Table 3, with EC50 ranges designated as follows: • A=0.1 μM to 1 μM • B=0.01 μM to <0.1 μM • C=0.001 μM to <0.01 μM • D=0.0001 μM to <0.001 μM
Background: TR-FRET usually uses a lanthanide donor and a delayed reading to cut background.

This is an account of results in patent US20240150330A1, “CHROMANS AND BENZOFURANS AS 5-HT1A AND TAAR1 AGONISTS” (Sunovion Pharmaceuticals Inc., priority 2021, published 2024).

One may read the inhibition as the change of the read-out against control, counted positive when it falls. What is called EC50 is the concentration giving half of the maximal effect.

For `CNC[C@@H]1CCOc2c(-c3ccncc3)cccc21` [Compound 3, (R)—N-methyl-1-(8-(pyridin-4-yl)chroman-4-yl)methanamine], the inhibition at 1 µM in experiment [1] was more than 50%. In experiment [2], this compound gave an EC50 of 10 to 100 nM.

In experiment [1], `CNC[C@H]1CCOc2c(-c3ccncc3)cccc21` [Compound 4, (S)—N-methyl-1-(8-(pyridin-4-yl)chroman-4-yl)methanamine] displayed an inhibition at 1 µM of more than 90%. Further, the EC50 in experiment [2] fell in the range of 100 to 1000 nM.

Take `NC[C@@H]1CCOc2c(-c3ccncc3)cccc21` [Compound 1, (R)-(8-(pyridin-4-yl)chroman-4-yl)methanamine]: the inhibition at 1 µM in experiment [1] was more than 50%.

Compound `NC[C@H]1CCOc2c(-c3ccncc3)cccc21` [Compound 2, (S)-(8-(pyridin-4-yl)chroman-4-yl)methanamine] registered an inhibition at 1 µM in experiment [1] of more than 90%.
